Source: patent publication US20240059710A1, “KRAS G12D Inhibitors” (Jacobio Pharmaceuticals Co., Ltd., priority 2020, published 2024)
Where two headings read alike, the source gives them in different places.

Columns and labels:
[1] = tested on: AGS cells expressing KRAS G12D; assay: Phospho-ERK1/2(THR202/TYR204) HTRF assay; format: cell-based; details: 2 hours incubation, read-out: AGS p-ERK IC50
Experimental: AGS cells expressing KRAS G12D were cultured in F12K medium (Gibco) containing 10% fetal bovine serum (Gibco). The AGS cells in culture medium were seeded in 96-well plates at a concentration of 40,000 cells/well and then put in a 37° C./5% CO2 cell incubator to incubate overnight. The next day, culture medium was removed and the compound diluted in assay medium (F12K, 0.1% FBS) was added in each well. After 2 hours incubation in a 37° C./5% CO2 cell incubator, the assay medium in 96-well plates was removed, then 50 μL of 1× blocking reagent-supplemented lysis buffer (Cisbio) was added and the plates were incubated at 25° C. for 45 min with shaking. 10 μL of cell lysates from the 96-well plates were transferred to a 384-well plate (Greiner) containing 2.5 μL/well HTRF® pre-mixed antibodies (Cisbio 64AERPEH). Incubate 4 hours at 25° C. and then read HTRF signals on Tecan Spark multimode microplate reader. The data were analyzed using a 4-parameter logistic model to calculate IC50 values.

AGS = assay: Cell growth inhibition assay (AGS); format: cell-based; details: 6 days incubation, CellTiter-Glo
Experimental: (§1) 4. Cell Growth Inhibition Assay
AGS cultured in F12K medium (Gibco) containing 10% fetal bovine serum (Gibco). Cells in culture medium were plated in 96-well plates at a concentration of 500 cells/well ([…]) and allowed to attach overnight.
(§2) The next day, compounds were diluted in culture medium and added to the plates. After 6 days incubation in a 37° C./5% CO2 cell incubator, the cell viability was detected by CellTiter-Glo® Luminescent Cell Viability Assay kit (Promega). Luminescent signals were read on Tecan Spark multimode microplate reader and analyzed using a 4-parameter logistic model to calculate IC50 values.

[2] = target: T1, GDP-loaded HIS-KRAS (G12D, aa 1-169) (Homo sapiens, UniProt P01116, G12D); assay: SOS1 catalyzed nucleotide exchange assay; format: biochemical; details: SOS1 ExD, TR-FRET, 4 hours at 25° C.
T1 construct: GDP-loaded HIS-KRAS (G12D, aa 1-169)
T1 sequence (P01116 1-169 isoform P01116-2 G12D): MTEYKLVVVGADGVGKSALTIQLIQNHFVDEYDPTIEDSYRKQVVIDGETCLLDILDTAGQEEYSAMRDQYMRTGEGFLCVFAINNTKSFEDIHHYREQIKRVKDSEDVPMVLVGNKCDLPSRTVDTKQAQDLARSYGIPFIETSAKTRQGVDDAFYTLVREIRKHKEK
Experimental: 1. SOS1 Catalyzed Nucleotide Exchange Assay
GDP-loaded HIS-KRAS (G12D, aa 1-169) was pre-incubated with a compound in the presence of 10 nM GDP in a 384-well plate (Greiner) for 15 min, then purified SOS1 ExD (Flag tag, aa 564-1049), BODIPY™ FL GTP (Invitrogen) and MAb (monoclonal antibody) Anti 6HIS-Tb cryptate Gold (Cisbio) were added to the assay wells (Final concentration: 1.5 nM GDP-loaded HIS-KRAS (G12D), 5 nM GDP, 0.5 μM SOS1 ExD, 80 nM BODIPY™ FL GTP, 52.5 ng/mL MAb Anti 6HIS-Tb cryptate Gold) and incubated for 4 hours at 25° C. Wells containing same percent of DMSO served as vehicle control, and wells without KRAS served as low control. TR-FRET signals were read on Tecan Spark multimode microplate reader. The parameters were F486: Excitation 340 nm, Emission 486 nm, Lag time 100 μs, Integration time 200 μs; F515: Excitation 340 nm, Emission 515 nm, Lag time 100 μs, Integration time 200 μs. TR-FRET ratios for each individual wells were calculated by equation: TR-FRET ratio=(Signal F515/Signal F486)*10000. The percent of activation of compounds treated wells were normalized between vehicle control and low control (% Activation=(TR-FRET ratioCompound treated−TR-FRET ratioLow control)/(TR-FRET ratioVehicle control−TR-FRET ratioLow control)*100%). Then the data were analyzed either by fitting a 4-parameter logistic model or by Excel to calculate IC50 values.

AsPC-1 = assay: Cell growth inhibition assay (AsPC-1); format: cell-based; details: AsPC-1, 6 days incubation, CellTiter-Glo
Experimental: as §1
AsPC-1 cultured in RPMI-1640 medium (Gibco) containing 10% fetal bovine serum (Gibco). Cells in culture medium were plated in 96-well plates at a concentration of 1000 cells/well ([…]) and allowed to attach overnight.
as §2

[3] = target: T2, GppNp-loaded HIS-KRAS (G12D, aa 1-169) / cRAF RBD (Homo sapiens, UniProt P01116, G12D); assay: GTP-KRAS and cRAF interaction assay; format: binding; details: HTRF, 2 hours at 25° C.
T2 construct: GppNp-loaded HIS-KRAS (G12D, aa 1-169)
T2 sequence (P01116 1-169 isoform P01116-2 G12D): as above
Experimental: 2. GTP-KRAS and cRAF Interaction Assay
GppNp-loaded HIS-KRAS (G12D, aa 1-169) was pre-incubated with a compound in the presence of 200 µM GTP in a 384-well plate (Greiner) for 15 min, then cRAF RBD (GST tag, aa 50-132, CreativeBioMart), MAb Anti GST-d2 (Cisbio) and MAb Anti 6HIS-Tb cryptate Gold (Cisbio) were added to the assay wells (Final concentration: 2.0 nM GppNp-loaded HIS-KRAS (G12D), 100 μM GTP, 35 nM cRAF RBD, 1 μg/mL MAb Anti GST-d2, 52.5 ng/mL MAb Anti 6HIS-Tb cryptate Gold) and incubated for 2 hours at 25° C. Wells containing same percent of DMSO served as vehicle control, and wells without KRAS served as low control. HTRF signals were read on Tecan Spark multimode microplate reader and HTRF ratios were calculated under manufacturer's instructions. The percent of activation of compounds treated wells were normalized between vehicle control and low control (% Activation=(HTRF ratioCompound treated−HTRF ratioLow control)/(HTRF ratioVehicle control−HTRF ratioLow control)*100). Then the data were analyzed either by fitting a 4-parameter logistic model or by Excel to calculate IC50 values.

| Structure (SMILES) | IC50 [2] [µM] | IC50 [3] [µM] | further results |
| --- | --- | --- | --- |
| C#Cc1cccc2cc(O)cc(-c3ccc4c(N5CC6CCC(C5)N6)nc(OCC5(CN6CCCC6)CC5)nc4c3F)c12 [Compound 116] | 0.0125 | 0.11 | IC50 ([1]; Homo sapiens): 0.0108 µM; IC50 (AGS; Homo sapiens, 144 h): 0.0208 µM; IC50 (AsPC-1; Homo sapiens, ASPC1, 144 h): 0.189 µM |
| C#Cc1c(Cl)ccc2cc(O)cc(-c3c(F)cc4c(N5CC6CCC(C5)N6)nc(OCC5(CN6CCOCC6)CC5)nc4c3F)c12 [Compound 126] | 0.00207 | 0.0247 | IC50 ([1]; Homo sapiens): 0.0208 µM; IC50 (AGS; Homo sapiens, 144 h): 0.000486 µM; IC50 (AsPC-1; Homo sapiens, ASPC1, 144 h): 0.0143 µM |
| C#Cc1cccc2cc(O)cc(-c3c(SC(F)(F)F)cc4c(N5CC6CCC(C5)N6)nc(OCC5(CN6CCOCC6)CC5)nc4c3F)c12 (single isomer, unassigned) [Compound 59B] | 0.00165 | 0.00628 | IC50 [1]: 0.0108 µM; IC50 (AGS): 0.006 µM; IC50 (AsPC-1): 0.00554 µM |
| C#Cc1cccc2cc(O)cc(-c3c(C)cc4c(N5CC6CCC(C5)N6)nc(OCC5(CN6CCOCC6)CC5)nc4c3F)c12 (single isomer, unassigned) [Compound 40A] | 0.0921 | 1.61 |  |
| C#Cc1cccc2cc(O)cc(-c3c(Cl)cc4c(N5CC6CCC(C5)N6)nc(OC[C@@]56CCCN5C[C@H](F)C6)nc4c3F)c12 (single isomer, unassigned) [Compound 72A] | 0.0859 | 1.48 |  |
| C#Cc1cccc2cc(O)cc(-c3ccc4c(N5CCNCC5CC#N)nc(OCC5(CN6CCOCC6)CC5)nc4c3F)c12 (racemic) [Compound 134] | 0.117 | 0.76 |  |
| C#Cc1cccc2cc(O)cc(-c3ccc4c(N5C6CCC5CNC6)nc(OC[C@@]56CCCN5C[C@H](F)C6)nc4c3F)c12 [Compound 70] | 0.00843 | 0.0591 | IC50 (AsPC-1; Homo sapiens, ASPC1, 144 h): 0.14 µM |
| Oc1cc(-c2ccc3c(N4CC5CCC(C4)N5)nc(OCC4(CN5CCOCC5)CC4)nc3c2F)c2cccc(F)c2c1 [Compound 50] | 0.0569 | 1.11 | IC50 ([1]; Homo sapiens): 0.441 µM |
| C#Cc1cccc2cc(O)cc(-c3c(SC(F)(F)F)cc4c(N5CC6CCC(C5)N6)nc(OCC5(CN6CCOCC6)CC5)nc4c3F)c12 (single isomer, unassigned) [Compound 59A] | > 0.1 | > 1 |  |
| Oc1cc(-c2c(Cl)cc3c(N4CC5CCC(C4)N5)nc(OCC4(CN5CCOCC5)CC4)nc3c2F)c2cccc(F)c2c1 [Compound 92] | 0.152 | 3.96 |  |
| CCc1cccc2cc(O)cc(-c3c(C4CC4)cc4c(N5CC6CCC(C5)N6)nc(OCC5(CN6CCOCC6)CC5)nc4c3F)c12 [Compound 39] | 0.322 | 1.41 |  |
| Oc1cc(Cl)c(C(F)(F)F)c(-c2ccc3c(N4CC5CCC(C4)N5)nc(OC[C@@]45CCCN4C[C@H](F)C5)nc3c2F)c1 [Compound 85] | 0.0691 | 2.21 |  |
| C#Cc1c(F)ccc2cc(O)cc(-c3c(Cl)cc4c(N5CC6CCC(C5)N6)nc(OCC5(CN6CCOCC6)CC5)nc4c3F)c12 (single isomer, unassigned) [Compound 99A] | 0.101 | 2.07 |  |
| C#Cc1cccc2cc(O)cc(-c3ccc4c(N5CCNC[C@H]5C)nc(OC[C@@]56CCCN5C[C@H](F)C6)nc4c3F)c12 [Compound 69] | 0.0251 | 0.781 | IC50 (AsPC-1; Homo sapiens, ASPC1, 144 h): 1.07 µM |
| C#Cc1cccc2cc(O)cc(-c3c(C4CC4)cc4c(N5CC6CCC(C5)N6)nc(OCC5(CN6CCOCC6)CC5)nc4c3F)c12 (single isomer, unassigned) [Compound 38A] | ~1 | 8.3 |  |
| C#Cc1cccc2cc(O)cc(-c3ccc4c(N5CCNC[C@H]5C)nc(OCC5(CN6CCOCC6)CC5)nc4c3F)c12 [Compound 82] |  | > 1 |  |
| Oc1cc(-c2c(Cl)cc3c(N4CC5CCC(C4)N5)nc(OCC4(CN5CCOCC5)CC4)nc3c2F)c2c(F)cccc2c1 [Compound 53] | 0.0571 | 0.853 | IC50 ([1]; Homo sapiens): 0.0996 µM |
| C#Cc1cccc2cc(O)cc(-c3c(C#N)cc4c(N5CC6CCC(C5)N6)nc(OCC5(CN6CCOCC6)CC5)nc4c3F)c12 (single isomer, unassigned) [Compound 60A] | 0.766 | 7.69 |  |
| C#Cc1cccc2cc(O)cc(-c3ccc4c(N5C6CNCC5C6)nc(OCC5(CN6CCOCC6)CC5)nc4c3F)c12 [Compound 56] | 0.146 | 1.91 |  |
| C#Cc1cccc2cc(O)cc(-c3c(Cl)cc4c(N5CC6CCC(C5)N6)nc(OCC5(CN6CCOCC6)CC5)nc4c3Cl)c12 (single isomer, unassigned) [Compound 107A] | 0.783 | > 10 |  |
| C#Cc1c(F)ccc2cccc(-c3ccc4c(N5CC6CCC(C5)N6)nc(OCC5(CN6CCOCC6)CC5)nc4c3F)c12 [Compound 93] | 0.0932 | 2.18 |  |
| C#Cc1cccc2cc(O)cc(-c3c(F)cc4c(N5CC6CCC(C5)N6)nc(OCC5(CN6CCOCC6)CC5)nc4c3F)c12 (single isomer, unassigned) [Compound 41A] | 0.12 | 0.417 |  |
| CCc1cccc2cc(O)cc(-c3c(Cl)cc4c(N5CC6CCC(C5)N6)nc(OCC5(CN6CCOCC6)CC5)nc4c3F)c12 [Compound 36] | 0.0328 |  |  |
| C#Cc1cccc2cc(O)cc(-c3ccc4c(N5C[C@H]6C[C@@H]5CN6)nc(OCC5(CN6CCOCC6)CC5)nc4c3F)c12 [Compound 54] | 0.0898 | 0.356 |  |
| C#Cc1cccc2cc(O)cc(-c3c(Cl)cc4c(N5CC6CCC(C5)N6)nc(OCC5(CN6CCOCC6)CC5)nc4c3F)c12 (single isomer, unassigned) [Compound 35A] | 0.651 |  |  |
| Oc1cc(-c2c(Cl)cc3c(N4CC5CCC(C4)N5)nc(OCC4(CN5CCOCC5)CC4)nc3c2F)c2c(Cl)cccc2c1 [Compound 37] | 0.0514 |  |  |
| C#Cc1cccc2cc(O)cc(-c3ccc4c(N5[C@H]6CN[C@H](C6)[C@H]5CC#N)nc(OCC5(CN6CCOCC6)CC5)nc4c3F)c12 [Compound 128] | > 0.1 | 0.519 |  |
| C#Cc1c(F)ccc2cc(O)cc(-c3c(Cl)cc4c(N5CC6CCC(C5)N6)nc(OCC5(CN6CCOCC6)CC5)nc4c3F)c12 (single isomer, unassigned) [Compound 99B] | 0.000403 | 0.0135 |  |
| Oc1cc(Cl)c(C(F)(F)F)c(-c2c(Cl)cc3c(N4CC5CCC(C4)N5)nc(OC[C@@]45CCCN4C[C@H](F)C5)nc3c2F)c1 [Compound 84] | 0.0354 | 0.325 |  |
